# Reference: patent US7829560B2, “1,4-disubstituted naphthalenes as inhibitors of P38 MAP kinase” (Arqule, Inc., priority 2004, dated 2010)
# pIC50: −log10 of the molar value.
# Tests used:
# [1] = target: T1, p38α (Homo sapiens, UniProt Q16539); test: p38 MAP Kinase assay: inhibition of ATF2 phosphorylation, ELISA; format: biochemical; details: ATF2 phosphorylation; read-out: [ENZ] P38 ALPHA, IC50, ELISA
# T1 construct: p38 MAP Kinases are recombinant human full-length proteins with an amino-terminal GST fusion; GST (N); purchased Upstate Biotechnology Inc; host or cells: E. coli
# T1 sequence (Q16539 whole entry, the tested form may be a part): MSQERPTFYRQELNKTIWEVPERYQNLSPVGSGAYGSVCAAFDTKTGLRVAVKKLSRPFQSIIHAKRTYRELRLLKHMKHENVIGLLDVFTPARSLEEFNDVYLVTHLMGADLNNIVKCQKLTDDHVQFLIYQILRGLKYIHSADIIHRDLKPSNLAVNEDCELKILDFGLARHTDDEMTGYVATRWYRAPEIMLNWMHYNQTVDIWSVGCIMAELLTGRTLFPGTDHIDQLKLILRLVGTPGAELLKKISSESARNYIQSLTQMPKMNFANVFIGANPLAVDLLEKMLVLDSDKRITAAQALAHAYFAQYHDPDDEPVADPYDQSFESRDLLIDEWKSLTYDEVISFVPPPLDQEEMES
# Summary of the method: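 GST-tagged full-length human p38 MAP kinase with GST-ATF2 (aa 19–96; 1.25 μM) and 40 μM ATP in HEPES pH 7.5 buffer, without (Method I) or with (Method II) 1% human serum albumin. Compound pre-incubated 15 min at room temperature; reaction 30 min at 37 °C; ATF2 Thr69 phosphorylation measured by ELISA (A450).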
# [2] = tested on: TNFα release from THP-1 cells; test: Inhibition of TNFα release from LPS-stimulated THP-1 cells, ELISA; format: cell-based; details: Homo sapiens, THP-1, THP-1 cells, read-out: [CELL] THP-1, IC50, TNF ALPHA, ELISA
# Summary of the method: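 Human THP-1 monocytes, 10^6 cells/ml in RPMI with 10% FBS, no serum or 1% HSA, preincubated 30 min at 37 °C with compound (≤0.5% DMSO), then stimulated with 10 μg/ml LPS for 18 h. Supernatant TNFα measured by ELISA; IC50 from non-linear dose-response regression.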
Compound,pIC50 [1],pIC50 [2],melting point
"CCN(C)c1cc(F)cc(C(=O)Nc2ccc(OCCN3CCOCC3)c3ccccc23)c1 [Compound B207, 3-[Ethyl(methyl)amino]-5-fluoro-N-[4-(2-morpholin-4-ylethoxy)-1-naphthyl]benzamide]",5.95,< 5.00,126 to 128 °C
"O=C(Nc1ccc(OCCN2CCOCC2)c2ccccc12)c1cc(F)cc(N2CCCCC2)c1 [Compound B66, 3-Fluoro-N-[4-(2-morpholin-4-ylethoxy)-1-naphthyl]-5-piperidin-1-ylbenzamide]",6.95,5.22,150 to 151 °C
"CC(C)CNc1nccc(Oc2ccc(NC(=O)c3cc(F)cc(N4CCOCC4)c3)c3ccccc23)n1 [Compound B318, 3-Fluoro-N-(4-{[2-(isobutylamino)pyrimidin-4-yl]oxy}-1-naphthyl)-5-morpholin-4-ylbenzamide]",8.14,7.42,96 to 97 °C
"CC1CCCN1c1cc(F)cc(C(=O)Nc2ccc(OCCN3CCOCC3)c3ccccc23)c1 (stereo not drawn) [Compound B208, 3-Fluoro-5-(2-methylpyrrolidin-1-yl)-N-[4-(2-morpholin-4-ylethoxy)-1-naphthyl]benzamide]",6.78,5.44,108 to 111 °C
"CSc1nccc(-c2ccc(NC(=O)c3cc(F)cc(N4CCOCC4)c3)c3ccccc23)n1 [Compound B270, 3-Fluoro-N-[4-(2-methylsulfanyl-pyrimidin-4-yl)-naphthalen-1-yl]-5-morpholin-4-yl-benzamide]",5.78,5.19,135 to 138 °C
"CCn1c(COc2ccc(NC(=O)c3cc(F)cc(N4CCOCC4)c3)c3ccccc23)n[nH]c1=O [Compound B255, N-[4-(4-Ethyl-5-oxo-4,5-dihydro-1H-[1,2,4]triazol-3-ylmethoxy)-naphthalen-1-yl]-3-fluoro-5-morpholin-4-yl-benzamide]",6.24,5.71,260 °C
"CSc1nccc(Oc2ccc(NC(=O)c3cc(F)cc(N4CCCCC4)c3)c3ccccc23)n1 [Compound B311, 3-Fluoro-N-(4-{[2-(methylthio)pyrimidin-4-yl]oxy}-1-naphthyl)-5-piperidin-1-ylbenzamide]",7.25,6.75,170 to 172 °C

# Now from value to molecule:
pIC50 [1],pIC50 [2],melting point,Compound
8.24,7.11,196 to 197 °C,"O=C(Nc1ccc(Oc2ccnc(N3CCC3)n2)c2ccccc12)c1cc(F)cc(N2CCOCC2)c1 [Compound B363, N-{4-[(2-azetidin-1-ylpyrimidin-4-yl)oxy]-1-naphthyl}-3-fluoro-5-morpholin-4-ylbenzamide]"
8.10,6.62,86 to 87 °C,"CCN1CCN(c2nccc(Oc3ccc(NC(=O)c4cc(F)cc(N5CCCCC5)c4)c4ccccc34)n2)CC1 [Compound B398, N-(4-{[2-(4-Ethylpiperazin-1-yl)pyrimidin-4-yl]oxy}-1-naphthyl)-3-fluoro-5-piperidin-1-ylbenzamide]"
9.15,7.97,112 to 114 °C,"CN1CCCC1CCNc1nccc(Oc2ccc(NC(=O)c3cc(F)cc(N4CCCCC4)c3)c3ccccc23)n1 (stereo not drawn) [Compound B394, 3-Fluoro-N-{4-[(2-{[2-(1-methylpyrrolidin-2-yl)ethyl]amino}pyrimidin-4-yl)oxy]-1-naphthyl}-5-piperidin-1-ylbenzamide]"
7.46,6.61,153 to 154 °C,"O=C(Nc1ccc(Oc2ccnc(-n3ccnc3)n2)c2ccccc12)c1cc(F)cc(N2CCOCC2)c1 [Compound B325, 3-Fluoro-N-(4-{[2-(1H-imidazol-1-yl)pyrimidin-4-yl]oxy}-1-naphthyl)-5-morpholin-4-ylbenzamide]"
7.02,< 6.00,102 to 104 °C,"CC(C)N(C)c1nccc(Oc2ccc(NC(=O)c3cc(F)cc(N4CCCCC4)c3)c3ccccc23)n1 [Compound B385, 3-Fluoro-N-[4-({2-[isopropyl(methyl)amino]pyrimidin-4-yl}oxy)-1-naphthyl]-5-piperidin-1-ylbenzamide]"
7.74,6.19,155 to 157 °C,"CN(C(=N)N)c1nccc(Oc2ccc(NC(=O)c3cc(F)cc(N4CCOCC4)c3)c3ccccc23)n1 [Compound B367, N-[4-({2-[[amino(imino)methyl](methyl)amino]pyrimidin-4-yl}oxy)-1-naphthyl]-3-fluoro-5-morpholin-4-ylbenzamide]"
7.37,6.99,101 to 102 °C,"CC1CCC(Nc2nccc(Oc3ccc(NC(=O)c4cc(F)cc(N5CCCCC5)c4)c4ccccc34)n2)CC1 (stereo not drawn) [Compound B388, 3-Fluoro-N-[4-({2-[(4-methylcyclohexyl)amino]pyrimidin-4-yl}oxy)-1-naphthyl]-5-piperidin-1-ylbenzamide]"
8.68,7.61,103 to 105 °C,"O=C(Nc1ccc(Oc2ccnc(NCC3CCCO3)n2)c2ccccc12)c1cc(F)cc(N2CCOCC2)c1 (stereo not drawn) [Compound B327, 3-Fluoro-5-morpholin-4-yl-N-[4-({2-[(tetrahydrofuran-2-ylmethyl)amino]pyrimidin-4-yl}oxy)-1-naphthyl]benzamide]"
